Measured values taken from patent US20260027068A1, “METHODS OF ADM[…]-KETAMINE” (Perception Neuroscience, Inc., priority 2022, published 2026).

Assays:
sigma receptor = details: cited from earlier work
[1] = Systolic blood pressure (vital signs)
Protocol: The Investigational Medicinal Product (IMP) R(−)-ketamine hydrochloride in sterile water for intravenous injection was investigated as an […] treatment of TRD. The International Union of Pure and Applied Chemistry (IUPAC) name is of the IMP is (2R)-2-(2-chlorophenyl)-2-(methylamino)cyclohexan-1-one. Subjects received the solution at either 30 mg or 60 mg dose, or a placebo. The IMP or placebo was administered on Day 1 as a single IV infusion via an electronic infusion pump over 40 minutes. The duration of study participation for each subject was up to 29 days including a screening period, a 3-day in-clinic visit, and 2 follow-up visits. 101 subjects were enrolled in approximately 20 study centers in the EU and the US.
Tympanic or temporal temperature, heart rate, blood pressure (SBP/DBP), respiratory rate, and SpO2 were assessed. Blood pressure and pulse measurements will be assessed with a completely automated device while the subject is supine or semi-supine. Manual techniques will be used only if an automated device is not available. Blood pressure and pulse measurements should be preceded by at least 5 minutes of rest for the subject in a quiet setting without distractions (e.g., television, cell phones). An abnormal blood pressure value at screening may be repeated once after 5 minutes of relaxation to determine the subject's eligibility. Blood pressure was recorded using the same arm and position (supine or semi-supine) throughout the study, where possible. Vital signs (to be taken before blood collection for laboratory tests) consisted of 1 pulse and 3 blood pressure measurements (3 consecutive blood pressure readings will be recorded at intervals of at least 1 minute). The average of the 3 blood pressure readings was recorded in the CRF. A pulse oximeter was used to measure peripheral capillary oxygen saturation (SpO2) continuously from pre-dose until 4-hours post-dose. A pulse oximeter was clipped onto the finger or foot of the subject, and light will be sent through the finger or foot and measured on the other side.
In these tables, baseline value is defined as the last non-missing value prior to study drug administration.

CYP2B6 = details: in vitro
healthy volunteers = details: up to 1 mg/kg IV or 1.8 mg/kg intramuscular; cited from earlier work

CN[C@@]1(c2ccccc2Cl)CCCCC1=O.Cl [R(−)-ketamine, (2R)-2-(2-chlorophenyl)-2-(methylamino)cyclohexan-1-one]
Higher affinity to the sigma receptor compared with S(+)-ketamine (sigma receptor): 15 fold
Subjects with change from baseline systolic blood pressure >40 mmHg, number ([1]; 30 mg): 0 n
Subjects with change from baseline systolic blood pressure >40 mmHg, percent ([1]; 30 mg): 0.0%
Subjects with post-baseline systolic blood pressure >180 mmHg, number ([1]; 30 mg): 0 n
Subjects with post-baseline systolic blood pressure >180 mmHg, percent ([1]; 30 mg): 0.0%
Systolic blood pressure: Mean ([1]; 30 mg, Day 1, 15 minutes): 116.8 mmHg
Systolic blood pressure: Median ([1]; 30 mg, Day 1, 15 minutes): 119.0 mmHg
Systolic blood pressure: Mean ([1]; 30 mg, Day 1, 40 minutes): 120.1 mmHg
Systolic blood pressure: Median ([1]; 30 mg, Day 1, 40 minutes): 122.0 mmHg
Systolic blood pressure: Mean ([1]; 30 mg, Day 1, 60 minutes): 117.7 mmHg
Systolic blood pressure: Median ([1]; 30 mg, Day 1, 60 minutes): 119.5 mmHg
Systolic blood pressure: Mean ([1]; 30 mg, Day 1, 2 hours): 118.7 mmHg
Systolic blood pressure: Median ([1]; 30 mg, Day 1, 2 hours): 122.0 mmHg
Systolic blood pressure: Mean ([1]; 30 mg, Day 1, 4 hours): 119.0 mmHg
Systolic blood pressure: Median ([1]; 30 mg, Day 1, 4 hours): 120.0 mmHg
Systolic blood pressure: Mean ([1]; 30 mg, Day 1, 6 hours): 118.0 mmHg
Systolic blood pressure: Median ([1]; 30 mg, Day 1, 6 hours): 120.0 mmHg
Systolic blood pressure: Mean ([1]; 30 mg, Day 2 - Discharge): 118.0 mmHg
Systolic blood pressure: Median ([1]; 30 mg, Day 2 - Discharge): 120.0 mmHg
Systolic blood pressure: Mean ([1]; 30 mg, Day 8): 119.2 mmHg
Systolic blood pressure: Median ([1]; 30 mg, Day 8): 121.0 mmHg
Systolic blood pressure: Mean ([1]; 30 mg, Day 15): 123.4 mmHg
Systolic blood pressure: Median ([1]; 30 mg, Day 15): 122.0 mmHg
Systolic blood pressure: Change from Baseline, Mean ([1]; 30 mg, to Day 1, 15 minutes): 1.2 mmHg
Systolic blood pressure: Change from Baseline, Median ([1]; 30 mg, to Day 1, 15 minutes): −1.0 mmHg
Systolic blood pressure: Change from Baseline, Mean ([1]; 30 mg, to Day 1, 40 minutes): 2.0 mmHg
Systolic blood pressure: Change from Baseline, Median ([1]; 30 mg, to Day 1, 40 minutes): 0.0 mmHg
Systolic blood pressure: Change from Baseline, Mean ([1]; 30 mg, to Day 1, 60 minutes): 2.4 mmHg
Systolic blood pressure: Change from Baseline, Median ([1]; 30 mg, to Day 1, 60 minutes): 2.5 mmHg
Systolic blood pressure: Change from Baseline, Mean ([1]; 30 mg, to Day 1, 2 hours): 0.6 mmHg
Systolic blood pressure: Change from Baseline, Median ([1]; 30 mg, to Day 1, 2 hours): 0.0 mmHg
Systolic blood pressure: Change from Baseline, Mean ([1]; 30 mg, to Day 1, 4 hours): 0.9 mmHg
Systolic blood pressure: Change from Baseline, Median ([1]; 30 mg, to Day 1, 4 hours): −1.0 mmHg
Systolic blood pressure: Change from Baseline, Mean ([1]; 30 mg, to Day 1, 6 hours): −0.1 mmHg
Systolic blood pressure: Change from Baseline, Median ([1]; 30 mg, to Day 1, 6 hours): −2.0 mmHg
Systolic blood pressure: Change from Baseline, Mean ([1]; 30 mg, to Day 2 - Discharge): −0.1 mmHg
Systolic blood pressure: Change from Baseline, Median ([1]; 30 mg, to Day 2 - Discharge): −1.0 mmHg
Systolic blood pressure: Change from Baseline, Mean ([1]; 30 mg, to Day 8): 1.2 mmHg
Systolic blood pressure: Change from Baseline, Median ([1]; 30 mg, to Day 8): 1.0 mmHg
Systolic blood pressure: Change from Baseline, Mean ([1]; 30 mg, to Day 15): 5.2 mmHg
Systolic blood pressure: Change from Baseline, Median ([1]; 30 mg, to Day 15): 3.0 mmHg
Subjects with change from baseline systolic blood pressure >40 mmHg, number ([1]; 60 mg): 1 n
Subjects with change from baseline systolic blood pressure >40 mmHg, percent ([1]; 60 mg): 2.9%
Subjects with post-baseline systolic blood pressure >180 mmHg, number ([1]; 60 mg): 0 n
Subjects with post-baseline systolic blood pressure >180 mmHg, percent ([1]; 60 mg): 0.0%
Systolic blood pressure: Mean ([1]; 60 mg, Day 1, 15 minutes): 123.6 mmHg
Systolic blood pressure: Median ([1]; 60 mg, Day 1, 15 minutes): 124.5 mmHg
Systolic blood pressure: Mean ([1]; 60 mg, Day 1, 40 minutes): 123.0 mmHg
Systolic blood pressure: Median ([1]; 60 mg, Day 1, 40 minutes): 122.0 mmHg
Systolic blood pressure: Mean ([1]; 60 mg, Day 1, 60 minutes): 123.9 mmHg
Systolic blood pressure: Median ([1]; 60 mg, Day 1, 60 minutes): 124.0 mmHg
Systolic blood pressure: Mean ([1]; 60 mg, Day 1, 2 hours): 119.0 mmHg
Systolic blood pressure: Median ([1]; 60 mg, Day 1, 2 hours): 120.0 mmHg
Systolic blood pressure: Mean ([1]; 60 mg, Day 1, 4 hours): 119.1 mmHg
Systolic blood pressure: Median ([1]; 60 mg, Day 1, 4 hours): 121.0 mmHg
Systolic blood pressure: Mean ([1]; 60 mg, Day 1, 6 hours): 119.7 mmHg
Systolic blood pressure: Median ([1]; 60 mg, Day 1, 6 hours): 119.5 mmHg
Systolic blood pressure: Mean ([1]; 60 mg, Day 2 - Discharge): 120.8 mmHg
Systolic blood pressure: Median ([1]; 60 mg, Day 2 - Discharge): 122.0 mmHg
Systolic blood pressure: Mean ([1]; 60 mg, Day 8): 123.2 mmHg
Systolic blood pressure: Median ([1]; 60 mg, Day 8): 122.0 mmHg
Systolic blood pressure: Mean ([1]; 60 mg, Day 15): 120.3 mmHg
Systolic blood pressure: Median ([1]; 60 mg, Day 15): 121.0 mmHg
Systolic blood pressure: Change from Baseline, Mean ([1]; 60 mg, to Day 1, 15 minutes): 4.4 mmHg
Systolic blood pressure: Change from Baseline, Median ([1]; 60 mg, to Day 1, 15 minutes): 1.5 mmHg
Systolic blood pressure: Change from Baseline, Mean ([1]; 60 mg, to Day 1, 40 minutes): 4.9 mmHg
Systolic blood pressure: Change from Baseline, Median ([1]; 60 mg, to Day 1, 40 minutes): 3.0 mmHg
Systolic blood pressure: Change from Baseline, Mean ([1]; 60 mg, to Day 1, 60 minutes): 5.3 mmHg
Systolic blood pressure: Change from Baseline, Median ([1]; 60 mg, to Day 1, 60 minutes): 5.0 mmHg
Systolic blood pressure: Change from Baseline, Mean ([1]; 60 mg, to Day 1, 2 hours): 0.9 mmHg
Systolic blood pressure: Change from Baseline, Median ([1]; 60 mg, to Day 1, 2 hours): 1.0 mmHg
Systolic blood pressure: Change from Baseline, Mean ([1]; 60 mg, to Day 1, 4 hours): 1.0 mmHg
Systolic blood pressure: Change from Baseline, Median ([1]; 60 mg, to Day 1, 4 hours): 0.0 mmHg
Systolic blood pressure: Change from Baseline, Mean ([1]; 60 mg, to Day 1, 6 hours): 1.4 mmHg
Systolic blood pressure: Change from Baseline, Median ([1]; 60 mg, to Day 1, 6 hours): 2.0 mmHg
Systolic blood pressure: Change from Baseline, Mean ([1]; 60 mg, to Day 2 - Discharge): 2.7 mmHg
Systolic blood pressure: Change from Baseline, Median ([1]; 60 mg, to Day 2 - Discharge): 1.0 mmHg
Systolic blood pressure: Change from Baseline, Mean ([1]; 60 mg, to Day 8): 5.0 mmHg
Systolic blood pressure: Change from Baseline, Median ([1]; 60 mg, to Day 8): 2.0 mmHg
Systolic blood pressure: Change from Baseline, Mean ([1]; 60 mg, to Day 15): 2.1 mmHg
Systolic blood pressure: Change from Baseline, Median ([1]; 60 mg, to Day 15): 0.0 mmHg
CYP2B6 induction (CYP2B6): inducer
Psychotomimetic and dissociative-like effects compared with S(+)-ketamine (healthy volunteers): less pronounced psychotomimetic and dissociative-like effects
